From patent US8163790B2, “Metronidazole cocrystals and imipramine cocrystals” (New Form Pharmaceuticals, Inc., priority 2005, dated 2012)

Tests used:
[1] = water at 23° C., 900 mL, 100 rpm
[2] = intrinsic dissolution, 900 mL, 100 rpm, 0.50 cm^2; media 34 mM aqueous NaCl, water at 37° C., water at ambient temperature (medium of the value not stated); relative to imipramine HCl
[3] = Intrinsic dissolution of metronidazole:gallic acid cocrystal (Woods apparatus, UV 318 nm); type: physicochemical; details: water at 37° C., 900 mL, 100 rpm, 0.50 cm^2, relative to metronidazole
Method: Samples of metronidazole and the metronidazole cocrystal were compressed at 1000 psi for approximately one minute. […] A dissolution medium of water was used at 37° C. […] Metronidazole and the metronidazole:gallic acid cocrystal solutions were analyzed with a Cary 50 UV-VIS single-beam spectrophotometer without dilution at room temperature in a 1.000 cm quartz cuvette. […] Wavelength calibration was performed using holmium oxide.

CN(C)CCCN1c2ccccc2CCc2ccccc21.Cl.O=C(O)c1ccc2ccccc2c1O
imipramine HCl dissolved from the cocrystal ([1]; at 300 minutes): less than 0.0063 mg/mL | dissolution rate compared with imipramine HCl (in words) ([1]; intrinsic dissolution, rate too slow to quantify accurately): much slower rate

CN(C)CCCN1c2ccccc2CCc2ccccc21.Cl [imipramine HCl, Imipramine hydrochloride, reference compound]
imipramine dissolved from imipramine HCl ([1]; in two minutes): 0.013 mg/mL

CN(C)CCCN1c2ccccc2CCc2ccccc21.CN(C)CCCN1c2ccccc2CCc2ccccc21.Cl.Cl.O=C(O)C=CC(=O)O [imipramine HCl:fumaric acid cocrystal]
dissolution rate of the cocrystal as % of the rate of imipramine HCl [2]: about 58%

Cc1ncc([N+](=O)[O-])n1CCO.O=C(O)c1cc(O)c(O)c(O)c1 [metronidazole:gallic acid cocrystal]
dissolution rate of the cocrystal as % of the rate of metronidazole [3]: about 22%
